Data published in ChEMBL document CHEMBL6092166, “Design, synthesis and enzymatic inhibition evaluation of novel 4-hydroxy Pd-C-Ⅲ derivatives as α-glucosidase and PTP1B dual-target inhibitors” (Eur J Med Chem, 2024).

Columns and labels:
Alpha glucosidase [1] = molecular target: T1, Alpha glucosidase (Homo sapiens, UniProt O43451+P10253+P14410+Q2M2H8); assay: Inhibition of alpha-glucosidase (unknown origin) using p-NPG as substrate incubated for 15 mins by spectrophotometric analysis; assay type: protein assay
[2] = molecular target: T2, Tyrosine-protein phosphatase non-receptor type 1 (Homo sapiens, UniProt P18031); assay: Inhibition of PTP1B (unknown origin) using pNPP as substrate preincubated for 10 mins followed by substrate addition for 20 mins by absorbance based analysis
T2 sequence (P18031 whole entry): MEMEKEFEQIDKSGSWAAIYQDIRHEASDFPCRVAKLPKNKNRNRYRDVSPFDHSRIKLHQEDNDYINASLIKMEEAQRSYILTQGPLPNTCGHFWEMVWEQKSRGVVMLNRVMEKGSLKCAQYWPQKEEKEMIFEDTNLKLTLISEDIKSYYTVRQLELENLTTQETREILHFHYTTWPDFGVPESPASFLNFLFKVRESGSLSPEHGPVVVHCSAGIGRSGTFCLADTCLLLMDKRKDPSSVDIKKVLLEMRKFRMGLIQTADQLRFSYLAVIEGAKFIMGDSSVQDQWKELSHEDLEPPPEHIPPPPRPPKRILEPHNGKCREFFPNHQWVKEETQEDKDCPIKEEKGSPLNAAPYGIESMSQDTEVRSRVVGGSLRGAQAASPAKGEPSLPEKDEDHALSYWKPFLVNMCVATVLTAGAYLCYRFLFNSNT

Alpha glucosidase [3] = molecular target: T1, Alpha glucosidase; assay: Inhibition of alpha-glucosidase (unknown origin) using p-NPG as substrate preincubated for 15 mins followed by substrate addition for 30 mins by absorbance based analysis; assay type: protein assay

Compound | IC50 (Alpha glucosidase [1]) | IC50 [2] | IC50 (Alpha glucosidase [3])
C/C=C\C(=O)O[C@H]1[C@H](O)c2cc3ccc(=O)oc3cc2OC1(C)C | 77.3 µM | 5.4 µM | 
O=C(O)c1cc2ccc(=O)oc2cc1O | 172.1 µM | 8 µM | 
O=C(/C=C/c1ccc(Cl)cc1Cl)OCCOc1ccc2ccc(=O)oc2c1 |  |  | 116.5 µM
CCCc1cc(=O)oc2cc(OCCOC(=O)/C=C/c3ccc(Cl)cc3Cl)ccc12 |  |  | > 300 µM
Cc1cc(OCCOC(=O)/C=C/c2ccc(Cl)cc2Cl)cc2oc(=O)cc(C)c12 |  |  | 124.1 µM
CC(C)c1cc2cc3ccc(=O)oc3cc2o1 | 85.8 µM | 10.8 µM | 
O=C(/C=C/c1cccc(Br)c1)OCCOc1ccc2ccc(=O)oc2c1 |  |  | 132.7 µM
CC(C)=CC(=O)O[C@@H]1c2cc3ccc(=O)oc3cc2OC(C)(C)[C@H]1OC(=O)C=C(C)C | 79.1 µM | 11.2 µM | 
O=C(/C=C/c1ccccc1[N+](=O)[O-])OCCOc1ccc2ccc(=O)oc2c1 |  |  | 299.7 µM
O=C(OCCCOc1ccc2ccc(=O)oc2c1)c1ccc(Cl)cc1Cl |  |  | > 300 µM
O=C(/C=C/c1cccc(Cl)c1)OCCOc1ccc2ccc(=O)oc2c1 |  |  | > 300 µM
CCN(CC)c1ccc(/C=C/C(=O)OCCOc2ccc3ccc(=O)oc3c2)cc1 |  |  | > 300 µM
O=C(OCCOc1ccc2ccc(=O)oc2c1)c1ccc(Cl)cc1Cl |  |  | 99 µM
O=C(/C=C/c1cccc(C(F)(F)F)c1)OCCOc1ccc2ccc(=O)oc2c1 |  |  | > 300 µM
COc1ccc(/C=C/C(=O)OCCOc2ccc3ccc(=O)oc3c2)cc1Br |  |  | 286.2 µM
